For 20 compounds, IC50 results are on record in US10040781B2, “Tank-binding kinase inhibitor compounds” (Gilead Sciences, Inc., priority 2014, dated 2018).

Usually IC50 stands for the concentration that gives 50% inhibition.

Like-named read-outs stand apart in the source and are kept apart here.

One assay addresses hJAK2 (Homo sapiens (Human), UniProt O60674). Put plainly: hJAK2 LANCE TR-FRET enzymatic assay. The format is biochemical. The settings on record: read-out: JAK2 IC50. A general note: TR-FRET usually uses a lanthanide donor and a delayed reading to cut background.
The target of the next assay is TBK1 (Homo sapiens (Human), UniProt Q9UHD2). As to the kind of experiment: TBK1 TR-FRET enzymatic assay.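 Further: phosphorylation of a biotinylated Ser/Thr peptide by purified full-length recombinant TBK1, read by TR-FRET after 240 min at 25 °C, IC50 is the geometric mean of at least four runs.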
The target of another assay is IKKε (Homo sapiens (Human), UniProt Q14164). Put plainly: IKKε TR-FRET enzymatic assay. The format is biochemical. The settings on record: read-out: IKKe IC50.
The mark [1] stands for this setting: TR-FRET, 2×Km ATP, geometric mean of minimum four determinations.

hJAK2, sequence (O60674 whole entry): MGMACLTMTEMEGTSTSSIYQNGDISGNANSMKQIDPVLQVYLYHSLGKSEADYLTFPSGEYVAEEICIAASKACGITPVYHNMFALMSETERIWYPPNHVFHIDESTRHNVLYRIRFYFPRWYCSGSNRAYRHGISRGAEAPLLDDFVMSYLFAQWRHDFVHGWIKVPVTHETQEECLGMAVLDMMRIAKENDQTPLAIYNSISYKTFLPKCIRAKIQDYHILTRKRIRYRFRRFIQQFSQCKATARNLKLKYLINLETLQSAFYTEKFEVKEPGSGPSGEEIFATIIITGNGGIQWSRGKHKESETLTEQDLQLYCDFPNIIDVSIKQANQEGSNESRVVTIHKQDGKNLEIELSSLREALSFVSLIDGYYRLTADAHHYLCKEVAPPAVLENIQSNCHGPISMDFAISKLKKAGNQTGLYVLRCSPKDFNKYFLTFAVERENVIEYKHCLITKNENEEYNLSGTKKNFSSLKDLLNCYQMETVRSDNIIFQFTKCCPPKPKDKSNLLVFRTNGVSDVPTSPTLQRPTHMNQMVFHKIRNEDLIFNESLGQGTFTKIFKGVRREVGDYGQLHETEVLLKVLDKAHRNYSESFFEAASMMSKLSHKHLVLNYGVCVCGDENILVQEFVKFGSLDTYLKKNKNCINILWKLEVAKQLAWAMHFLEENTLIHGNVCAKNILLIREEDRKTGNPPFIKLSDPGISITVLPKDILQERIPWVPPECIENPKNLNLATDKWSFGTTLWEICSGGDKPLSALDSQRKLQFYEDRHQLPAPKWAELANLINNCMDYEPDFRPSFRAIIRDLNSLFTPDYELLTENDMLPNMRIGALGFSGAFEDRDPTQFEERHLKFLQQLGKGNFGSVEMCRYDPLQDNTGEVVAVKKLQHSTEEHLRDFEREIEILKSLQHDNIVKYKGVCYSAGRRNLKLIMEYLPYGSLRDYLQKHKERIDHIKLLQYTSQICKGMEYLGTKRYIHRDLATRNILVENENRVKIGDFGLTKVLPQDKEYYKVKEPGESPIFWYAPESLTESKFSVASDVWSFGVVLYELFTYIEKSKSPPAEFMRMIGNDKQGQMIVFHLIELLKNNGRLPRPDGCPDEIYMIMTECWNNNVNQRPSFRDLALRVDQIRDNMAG
TBK1, sequence (Q9UHD2 whole entry): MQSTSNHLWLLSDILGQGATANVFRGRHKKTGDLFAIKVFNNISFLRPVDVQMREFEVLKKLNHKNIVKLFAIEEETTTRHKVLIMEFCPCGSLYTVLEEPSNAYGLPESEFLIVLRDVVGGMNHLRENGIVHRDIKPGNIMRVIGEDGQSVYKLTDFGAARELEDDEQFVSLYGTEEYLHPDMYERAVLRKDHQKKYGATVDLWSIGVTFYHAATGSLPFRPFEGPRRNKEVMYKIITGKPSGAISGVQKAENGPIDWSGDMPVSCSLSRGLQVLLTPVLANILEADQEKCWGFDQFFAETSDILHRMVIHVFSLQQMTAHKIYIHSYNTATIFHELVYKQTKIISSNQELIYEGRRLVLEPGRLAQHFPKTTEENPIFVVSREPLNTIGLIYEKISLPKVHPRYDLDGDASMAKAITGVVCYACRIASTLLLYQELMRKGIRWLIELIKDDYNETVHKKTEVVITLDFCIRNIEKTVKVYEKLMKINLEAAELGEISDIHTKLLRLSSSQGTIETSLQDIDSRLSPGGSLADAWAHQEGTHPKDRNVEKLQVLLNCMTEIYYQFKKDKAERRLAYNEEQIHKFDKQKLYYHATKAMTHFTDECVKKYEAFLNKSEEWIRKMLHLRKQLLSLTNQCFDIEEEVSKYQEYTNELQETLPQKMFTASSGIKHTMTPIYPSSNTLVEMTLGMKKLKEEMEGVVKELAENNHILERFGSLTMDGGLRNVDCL
IKKε, sequence (Q14164 whole entry): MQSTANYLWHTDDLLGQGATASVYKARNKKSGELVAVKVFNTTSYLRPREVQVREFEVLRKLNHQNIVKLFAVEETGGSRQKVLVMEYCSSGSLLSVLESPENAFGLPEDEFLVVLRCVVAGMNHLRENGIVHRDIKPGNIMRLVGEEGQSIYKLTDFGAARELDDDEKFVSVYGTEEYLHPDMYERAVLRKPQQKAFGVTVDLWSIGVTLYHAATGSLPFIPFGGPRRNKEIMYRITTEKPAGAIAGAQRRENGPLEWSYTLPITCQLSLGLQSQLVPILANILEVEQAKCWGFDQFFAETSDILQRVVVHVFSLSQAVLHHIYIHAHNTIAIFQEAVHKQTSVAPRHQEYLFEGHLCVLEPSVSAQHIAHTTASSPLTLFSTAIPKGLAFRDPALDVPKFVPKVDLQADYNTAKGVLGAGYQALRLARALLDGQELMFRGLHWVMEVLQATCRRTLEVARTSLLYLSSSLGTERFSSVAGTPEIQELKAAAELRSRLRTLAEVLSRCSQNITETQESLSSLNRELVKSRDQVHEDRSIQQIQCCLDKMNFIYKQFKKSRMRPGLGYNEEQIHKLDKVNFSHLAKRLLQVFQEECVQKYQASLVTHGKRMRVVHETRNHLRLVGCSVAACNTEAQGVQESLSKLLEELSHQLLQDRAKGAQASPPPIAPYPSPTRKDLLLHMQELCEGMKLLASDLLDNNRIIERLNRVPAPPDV

Consider `C[C@H](O)C(=O)N1CC[C@H](Oc2ccc(-c3ncnc(Nc4ccc(C(C)(C)O)nc4)n3)cc2C#N)[C@H](F)C1` [Example 382, 2-(((3R,4S)-3-fluoro-1-((S)-2-hydroxypropanoyl)piperidin-4-yl)oxy)-5-(4-((6-(2-hydroxypropan-2-yl)pyridin-3-yl)amino)-1,3,5-triazin-2-yl)benzonitrile], for which the IC50 at hJAK2 was at least 1000 nM; at TBK1 it was 3 nM; on IKKε, 3 nM.

In the case of `C[C@H](O)C(=O)N1CC[C@H](Oc2ccc(-c3ncnc(Nc4ccc(N5CCOC[C@H]5CO)cc4)n3)cc2C#N)[C@H](F)C1` [Example 383, 2-(((3R,4S)-3-fluoro-1-((S)-2-hydroxypropanoyl)piperidin-4-yl)oxy)-5-(4-((4-((R)-3-(hydroxymethyl)morpholino)phenyl)amino)-1,3,5-triazin-2-yl)benzonitrile], the IC50 on hJAK2 was determined as 568 nM; at TBK1, 2 nM; at IKKε, 1 nM.

With `N#Cc1cc(-c2ncnc(Nc3ccc(N4CCOC[C@H]4CO)cc3)n2)ccc1O[C@H]1CCN(C(=O)CO)C[C@H]1F` [Example 384, 2-(((3R,4S)-3-fluoro-1-(2-hydroxyacetyl)piperidin-4-yl)oxy)-5-(4-((4-((R)-3-(hydroxymethyl)morpholino)phenyl)amino)-1,3,5-triazin-2-yl)benzonitrile], the values for the concentration for half-maximal inhibition (IC50) at hJAK2, against TBK1 and on IKKε were 189 nM, 2 nM and 1 nM, respectively.

Turning to `C[C@H](O)C(=O)N1CC[C@H](Oc2ccc(-c3ncnc(Nc4ccc5c(c4)NC(=O)C5(C)C)n3)cc2C#N)[C@H](F)C1` [Example 385, 5-(4-((3,3-dimethyl-2-oxoindolin-6-yl)amino)-1,3,5-triazin-2-yl)-2-(((3R,4S)-3-fluoro-1-((8)-2-hydroxypropanoyl)piperidin-4-yl)oxy)benzonitrile], the values for the IC50 at hJAK2, on TBK1 and on IKKε were 888 nM, 2 nM and 3 nM, respectively.

As for `C[C@H](O)C(=O)N1CC[C@H](Oc2ccc(-c3ncnc(Nc4ccnc(C(C)(C)O)c4)n3)cc2C#N)[C@H](F)C1` [Example 386, 2-(((3R,4S)-3-fluoro-1-((S)-2-hydroxypropanoyl)piperidin-4-yl)oxy)-5-(4-((2-(2-hydroxypropan-2-yl)pyridin-4-yl)amino)-1,3,5-triazin-2-yl)benzonitrile], the concentration for half-maximal inhibition (IC50) at hJAK2 was at least 1000 nM; against TBK1, 4 nM; on IKKε it was 6 nM.

For the compound `CC(C)(O)c1ccc(Nc2ncnc(-c3ccc(O[C@H]4CCN(C(=O)CO)C[C@H]4F)c(C#N)c3)n2)cn1` [Example 388, 2-(((3R,4S)-3-fluoro-1-(2-hydroxyacetyl)piperidin-4-yl)oxy)-5-(4-((6-(2-hydroxypropan-2-yl)pyridin-3-yl)amino)-1,3,5-triazin-2-yl)benzonitrile], the half-inhibitory concentration (IC50) at hJAK2 was at least 1000 nM; on TBK1, 6 nM; on IKKε, 4 nM.

In the case of `COc1cc(Nc2ncnc(-c3ccc(O[C@H]4CCN(C(=O)[C@H](C)O)C[C@H]4F)c(C#N)c3)n2)ccc1N1CCN(C2COC2)CC1` [Example 389, 2-(((3R,4S)-3-fluoro-1-((S)-2-hydroxypropanoyl)piperidin-4-yl)oxy)-5-(4-((3-methoxy-4-(4-(oxetan-3-yl)piperazin-1-yl)phenyl)amino)-1,3,5-triazin-2-yl)benzonitrile], the IC50 at hJAK2 came to 55 nM; on TBK1, 2 nM; on IKKε it was 1 nM.

As for `N#Cc1cc(-c2ncnc(Nc3ccc(N4CCN(C5COC5)CC4)cc3)n2)ccc1O[C@H]1CCN(C(=O)c2ccncc2N)C[C@H]1F` [Example 390, 2-(((3R,4S)-1-(3-aminoisonicotinoyl)-3-fluoropiperidin-4-yl)oxy)-5-(4-((4-(4-(oxetan-3-yl)piperazin-1-yl)phenyl)amino)-1,3,5-triazin-2-yl)benzonitrile], the 50% inhibitory concentration (IC50) was 37 nM at hJAK2, 65 nM against TBK1 and 165 nM at IKKε.

Regarding `N#Cc1cc(-c2ncnc(Nc3ccc(N4CCN(C5COC5)CC4)cc3)n2)ccc1O[C@H]1CCN(C(=O)c2[nH]ncc2N)C[C@H]1F` [Example 391, 2-(((3R,4S)-1-(4-amino-1H-pyrazole-5-carbonyl)-3-fluoropiperidin-4-yl)oxy)-5-(4-((4-(4-(oxetan-3-yl)piperazin-1-yl)phenyl)amino)-1,3,5-triazin-2-yl)benzonitrile], the IC50 worked out at 122 nM at hJAK2, 6 nM at TBK1 and 9 nM at IKKε.

On to `COc1cc(Nc2ncnc(-c3ccc(O[C@H]4CCN(C(=O)CO)C[C@H]4F)c(C#N)c3)n2)ccc1N1CCN(C2COC2)CC1` [Example 392, 2-(((3R,4S)-3-fluoro-1-(2-hydroxyacetyl)piperidin-4-yl)oxy)-5-(4-((3-methoxy-4-(4-(oxetan-3-yl)piperazin-1-yl)phenyl)amino)-1,3,5-triazin-2-yl)benzonitrile], for which the concentration for half-maximal inhibition (IC50) turned out to be 26 nM on hJAK2, 5 nM on TBK1 and 1 nM on IKKε.

Regarding `N#Cc1cc(-c2ncnc(Nc3ccc(N4CCN(C5COC5)CC4)c(OC(F)F)c3)n2)ccc1O[C@H]1CCN(C(=O)CO)C[C@H]1F` [Example 393, 5-(4-((3-(difluoromethoxy)-4-(4-(oxetan-3-yl)piperazin-1-yl)phenyl)amino)-1,3,5-triazin-2-yl)-2-(((3R,4S)-3-fluoro-1-(2-hydroxyacetyl)piperidin-4-yl)oxy)benzonitrile], the IC50 is 29 nM at hJAK2, 3 nM on TBK1 and 1 nM on IKKε.

Turning to `Cc1cc(Nc2ncnc(-c3ccc(O[C@H]4CCN(C(=O)CO)C[C@H]4F)c(C#N)c3)n2)ccc1N1CCN(C2COC2)CC1` [Example 394, 2-(((3R,4S)-3-fluoro-1-(2-hydroxyacetyl)piperidin-4-yl)oxy)-5-(4-((3-methyl-4-(4-(oxetan-3-yl)piperazin-1-yl)phenyl)amino)-1,3,5-triazin-2-yl)benzonitrile], the half-inhibitory concentration (IC50) on hJAK2 turned out to be 64 nM; against TBK1, 2 nM; on IKKε it was 1 nM.

On to `C[C@H](O)C(=O)N1CC[C@H](Oc2ccc(-c3ncnc(Nc4ccc(N5CCN(C6COC6)CC5)c(OC(F)F)c4)n3)cc2C#N)[C@H](F)C1` [Example 395, 5-(4-((3-(difluoromethoxy)-4-(4-(oxetan-3-yl)piperazin-1-yl)phenyl)amino)-1,3,5-triazin-2-yl)-2-(((3R,4S)-3-fluoro-1-((S)-2-hydroxypropanoyl)piperidin-4-yl)oxy)benzonitrile], for which the IC50 on hJAK2 turned out to be 119 nM; against TBK1, 2 nM; at IKKε it was 1 nM.

For `Cc1cc(Nc2ncnc(-c3ccc(O[C@H]4CCN(C(=O)[C@H](C)O)C[C@H]4F)c(C#N)c3)n2)ccc1N1CCN(C2COC2)CC1` [Example 396, 2-(((3R,4S)-3-fluoro-1-((S)-2-hydroxypropanoyl)piperidin-4-yl)oxy)-5-(4-((3-methyl-4-(4-(oxetan-3-yl)piperazin-1-yl)phenyl)amino)-1,3,5-triazin-2-yl)benzonitrile], the IC50 at hJAK2 was 137 nM; on TBK1 it was 2 nM; at IKKε it was 1 nM.

Regarding `CC(C)(O)c1cc(Nc2ncnc(-c3ccc(O[C@H]4CCN(C(=O)CO)C[C@H]4F)c(C#N)c3)n2)ccn1` [Example 397, 2-(((3R,4S)-3-fluoro-1-(2-hydroxyacetyl)piperidin-4-yl)oxy)-5-(4-((2-(2-hydroxypropan-2-yl)pyridin-4-yl)amino)-1,3,5-triazin-2-yl)benzonitrile], the IC50 stood at 960 nM on hJAK2, 2 nM against TBK1 and 2 nM on IKKε.

On to `CN1CC[C@H](Oc2ccc(Nc3ncnc(-c4ccc(O[C@H]5CCN(C(=O)[C@@H](O)CO)C[C@H]5F)c(C#N)c4)n3)cc2)[C@H](F)C1` [Example 398, 2-(((3R,4S)-1-((S)-2,3-dihydroxypropanoyl)-3-fluoropiperidin-4-yl)oxy)-5-(4-((4-(((3R,4S)-3-fluoro-1-methylpiperidin-4-yl)oxy)phenyl)amino)-1,3,5-triazin-2-yl)benzonitrile], for which the half-inhibitory concentration (IC50) was found to be 763 nM on hJAK2, 3 nM on TBK1 and 1 nM on IKKε.

`COc1cc(Nc2ncnc(-c3ccc(N4C[C@H](O)CCC4=O)c(C#N)c3)n2)ccc1N1CCN(C2COC2)CC1` [Example 399, (R)-2-(5-hydroxy-2-oxopiperidin-1-yl)-5-(4-((3-methoxy-4-(4-(oxetan-3-yl)piperazin-1-yl)phenyl)amino)-1,3,5-triazin-2-yl)benzonitrile]: the figures for the IC50 on hJAK2, against TBK1 and at IKKε (setting [1]) were 174 nM, 152 nM and 270 nM, respectively.

With `C[C@H](O)C(=O)N1CC[C@H](Oc2ccc(-c3ncnc(Nc4ccc(O[C@H]5CCN(C)C[C@H]5F)cc4)n3)cc2C#N)[C@H](F)C1` [Example 400, 2-(((3R,4S)-3-fluoro-1-((S)-2-hydroxypropanoyl)piperidin-4-yl)oxy)-5-(4-((4-(((3R,4S)-3-fluoro-1-methylpiperidin-4-yl)oxy)phenyl)amino)-1,3,5-triazin-2-yl)benzonitrile], the results for the IC50 on hJAK2, against TBK1 and at IKKε (setting [1]) were at least 1000 nM, 3 nM and 1 nM, respectively.

In the case of `COCC(=O)N1CC[C@H](Oc2ccc(-c3ncnc(Nc4ccc(N5CCN(C6COC6)CC5)c(F)c4)n3)cc2C#N)[C@H](F)C1` [Example 402, 2-(((3R,4S)-3-fluoro-1-(2-methoxyacetyl)piperidin-4-yl)oxy)-5-(4-((3-fluoro-4-(4-(oxetan-3-yl)piperazin-1-yl)phenyl)amino)-1,3,5-triazin-2-yl)benzonitrile], the IC50 on hJAK2 was at least 1000 nM; against TBK1, 3 nM; on IKKε (setting [1]), 3 nM.

Regarding `CN1C(=O)CC[C@H]1C(=O)N1CC[C@H](Oc2ccc(-c3ncnc(Nc4ccc(N5CCN(C6COC6)CC5)cc4)n3)cc2C#N)[C@H](F)C1` [Example 407, 2-(((3R,4S)-3-fluoro-1-((S)-1-methyl-5-oxopyrrolidine-2-carbonyl)piperidin-4-yl)oxy)-5-(4-((4-(4-(oxetan-3-yl)piperazin-1-yl)phenyl)amino)-1,3,5-triazin-2-yl)benzonitrile], the IC50 was at least 1000 nM on hJAK2, 165 nM on TBK1 and 165 nM at IKKε (setting [1]).
